Laboratory results: US20060069132A1, “Azolecarboxamide herbicides” (priority 2004, published 2006)

What was measured:
Surinam grass = assay: Test C pre-/postemergence herbicide test; format: in vivo, Urochloa decumbens
In short: (§1)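 Visual injury scores run from 0 (no effect) to 100 (complete control), assessed relative to untreated controls 12 to 14 days after treatment in the greenhouse. Chemicals were formulated in a non-phytotoxic solvent mixture with surfactant and applied to soil after planting or to emerged plants at the 1- to 4-leaf stage.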

soybean = assay: Test C pre-/postemergence herbicide test; format: in vivo, Glycine max
In short: as §1

johnsongrass = assay: Test C pre-/postemergence herbicide test; format: in vivo, Sorghum halepense
In short: as §1

cocklebur = assay: Test C pre-/postemergence herbicide test; format: in vivo, Xanthium strumarium
In short: as §1

goosegrass = assay: Test C pre-/postemergence herbicide test; format: in vivo, Eleusine indica
In short: as §1

morningglory = assay: Test A pre-/postemergence herbicide test; format: in vivo, Ipomoea spp.; settings: for Plant response rating, Morningglory: Postemergence; for Morningglory plant response rating: Preemergence
In short: (§2)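 Pre: seeded sandy loam, directed soil spray, compound in non-phytotoxic solvent + surfactant. Post: 1–2-leaf plants (2–10 cm), sprayed to runoff. Greenhouse ~10 d; visual injury vs untreated, 0–100 scale.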

velvetleaf = assay: Test A pre-/postemergence herbicide test; format: in vivo, Abutilon theophrasti; settings: for Plant response rating, Velvetleaf: Postemergence; for Velvetleaf plant response rating: Preemergence
In short: as §2

pigweed = assay: Test C pre-/postemergence herbicide test; format: in vivo, Amaranthus retroflexus
In short: as §1

bermudagrass = assay: Test C pre-/postemergence herbicide test; format: in vivo, Cynodon dactylon
In short: as §1

[1] = 31 g ai/ha, preemergence, scale 0 to 100
[2] = 125 g ai/ha, scale 0 (no effect) to 100 (complete control), visual, 12 to 14 days, preemergence
[3] = postemergence, 125 g ai/ha, scale 0 to 100
[4] = postemergence, 62 g ai/ha, scale 0 to 100
[5] = Postemergence, 125 g ai/ha, scale 0 to 100, 0 no effect, 100 complete control
[6] = postemergence, 16 g ai/ha, scale 0 to 100
[7] = 500 g ai/ha, 0 to 100 scale, 0 no effect, 100 complete control
[8] = 2000 g ai/ha, 0 to 100 scale, 0 no effect, 100 complete control
[9] = 500 g ai/ha, visual rating, 0 to 100 scale (0 no effect, 100 complete control)
[10] = 250 g ai/ha, scale 0 to 100 (0 no effect, 100 complete control), visual, 12 to 14 days, preemergence
[11] = Postemergence, 250 g ai/ha, scale 0 to 100, 0 no effect, 100 complete control

SMILES: CCNC(=O)c1cccc(NC(=O)c2cc(C(C)(C)C)nn2CCF)c1 [Compound 35]
- Plant response rating, Surinam Grass (Surinam grass; [1]): 0
- Plant response rating (0 = no effect, 100 = complete control), Surinam Grass (Surinam grass; 62 g ai/ha, preemergence): 10
- Plant response rating, Surinam Grass (Surinam grass; [2]): 20
- Plant response rating, Surinam Grass (Surinam grass; [3]): 60
- Plant response rating, Surinam Grass (Surinam grass; [4]): 40
- Plant response rating, Soybean (soybean; [1]): 0
- Plant response rating (0 = no effect, 100 = complete control), Soybean (soybean; 62 g ai/ha, preemergence): 0
- Plant response rating, Soybean (soybean; [2]): 0
- Plant response rating, Soybean (soybean; [3]): 90
- Plant response rating, Soybean (soybean; [4]): 90
- Plant response rating, Johnsongrass (johnsongrass; [1]): 10
- Plant response rating (0 = no effect, 100 = complete control), Johnsongrass (johnsongrass; 62 g ai/ha, preemergence): 50
- Plant response rating, Johnsongrass (johnsongrass; [2]): 70
- Plant response rating, Johnsongrass (johnsongrass; [5]): 70
- Plant response rating, Johnsongrass (johnsongrass; [4]): 70
- Plant response rating, Cocklebur (cocklebur; [1]): 0
- Plant response rating (0 = no effect, 100 = complete control), Cocklebur (cocklebur; 62 g ai/ha, preemergence): 0
- Plant response rating, Cocklebur (cocklebur; [2]): 20
- Plant response rating, Cocklebur (cocklebur; [5]): 70
- Plant response rating, Cocklebur (cocklebur; [6]): 20
- Plant response rating, Cocklebur (cocklebur; postemergence, 31 g ai/ha, scale 0 to 100): 20
- Plant response rating, Cocklebur (cocklebur; [4]): 60
- Plant response rating, Goosegrass (goosegrass; [1]): 20
- Plant response rating (0 = no effect, 100 = complete control), Goosegrass (goosegrass; 62 g ai/ha, preemergence): 30
- Plant response rating, Goosegrass (goosegrass; [2]): 70
- Plant response rating, Goosegrass (goosegrass; [5]): 50
- Plant response rating, Goosegrass (goosegrass; [4]): 40
- Plant response rating, Morningglory (morningglory; [7]): 10
- Plant response rating, Morningglory (morningglory; [8]): 10
- Morningglory plant response rating (morningglory; [9]): 25
- Morningglory plant response rating (morningglory; [8]): 85
- Plant response rating, Velvetleaf (velvetleaf; [7]): 25
- Plant response rating, Velvetleaf (velvetleaf; [8]): 40
- Velvetleaf plant response rating (velvetleaf; [9]): 35
- Velvetleaf plant response rating (velvetleaf; [8]): 95
- Plant response rating, Pigweed (pigweed; [1]): 0
- Plant response rating (0 = no effect, 100 = complete control), Pigweed (pigweed; 62 g ai/ha, preemergence): 90
- Plant response rating, Pigweed (pigweed; [2]): 100
- Plant response rating, Pigweed (pigweed; [3]): 100
- Plant response rating, Pigweed (pigweed; [4]): 100
- Plant response rating, Bermudagrass (bermudagrass; 16 g ai/ha, scale 0 to 100, 0 no effect, 100 complete control, last section of Table C (species set of preemergence test)): 0
- Plant response rating, Bermudagrass (bermudagrass; [1]): 30
- Plant response rating (0 = no effect, 100 = complete control), Bermudagrass (bermudagrass; 62 g ai/ha, preemergence): 90
- Plant response rating, Bermudagrass (bermudagrass; [2]): 100
- Plant response rating, Bermudagrass (bermudagrass; [5]): 20
- Plant response rating, Bermudagrass (bermudagrass; [6]): 0
- Plant response rating, Bermudagrass (bermudagrass; [4]): 0

SMILES: CCn1nc(C(C)(C)C)cc1C(=O)Nc1cccc(C(=O)NC2CC2)c1 [Compound 44]
- Plant response rating (0 = no effect, 100 = complete control), Surinam Grass (Surinam grass; 62 g ai/ha, preemergence): 10
- Plant response rating, Surinam Grass (Surinam grass; [2]): 10
- Plant response rating, Surinam Grass (Surinam grass; [10]): 10
- Plant response rating, Surinam Grass (Surinam grass; [11]): 40
- Plant response rating, Surinam Grass (Surinam grass; [4]): 40
- Plant response rating (0 = no effect, 100 = complete control), Soybean (soybean; 62 g ai/ha, preemergence): 0
- Plant response rating, Soybean (soybean; [2]): 10
- Plant response rating, Soybean (soybean; [10]): 10
- Plant response rating, Soybean (soybean; [11]): 100
- Plant response rating, Soybean (soybean; [4]): 100
- Plant response rating (0 = no effect, 100 = complete control), Johnsongrass (johnsongrass; 62 g ai/ha, preemergence): 30
- Plant response rating, Johnsongrass (johnsongrass; [2]): 30
- Plant response rating, Johnsongrass (johnsongrass; [10]): 50
- Plant response rating, Johnsongrass (johnsongrass; [5]): 30
- Plant response rating, Johnsongrass (johnsongrass; [11]): 40
- Plant response rating, Johnsongrass (johnsongrass; [4]): 30
- Plant response rating (0 = no effect, 100 = complete control), Cocklebur (cocklebur; 62 g ai/ha, preemergence): 0
- Plant response rating, Cocklebur (cocklebur; [10]): 0
- Plant response rating, Cocklebur (cocklebur; [5]): 70
- Plant response rating, Cocklebur (cocklebur; [11]): 70
- Plant response rating, Cocklebur (cocklebur; [4]): 50
- Plant response rating (0 = no effect, 100 = complete control), Goosegrass (goosegrass; 62 g ai/ha, preemergence): 10
- Plant response rating, Goosegrass (goosegrass; [2]): 30
- Plant response rating, Goosegrass (goosegrass; [10]): 50
- Plant response rating, Goosegrass (goosegrass; [5]): 40
- Plant response rating, Goosegrass (goosegrass; [11]): 50
- Plant response rating, Goosegrass (goosegrass; [4]): 40
- Plant response rating, Morningglory (morningglory; [7]): 15
- Plant response rating, Morningglory (morningglory; [8]): 45
- Morningglory plant response rating (morningglory; [9]): 10
- Morningglory plant response rating (morningglory; [8]): 30
- Plant response rating, Velvetleaf (velvetleaf; [8]): 65
- Velvetleaf plant response rating (velvetleaf; [9]): 20
- Velvetleaf plant response rating (velvetleaf; [8]): 35
- Plant response rating (0 = no effect, 100 = complete control), Pigweed (pigweed; 62 g ai/ha, preemergence): 10
- Plant response rating, Pigweed (pigweed; [2]): 70
- Plant response rating, Pigweed (pigweed; [10]): 90
- Plant response rating, Pigweed (pigweed; [11]): 100
- Plant response rating, Pigweed (pigweed; [4]): 100
- Plant response rating (0 = no effect, 100 = complete control), Bermudagrass (bermudagrass; 62 g ai/ha, preemergence): 0
- Plant response rating, Bermudagrass (bermudagrass; [10]): 20
- Plant response rating, Bermudagrass (bermudagrass; [5]): 90
